Data taken from patent US20210123061A1, “METHODS AND COMPOSITIONS FOR TREATING INFLAMMATORY DISEASE OR DISORDER” (THE BRIGHAM AND WOMEN'S HOSPITAL, INC., priority 2018, published 2021).

Assays:
[1] = tested on: activated macrophages (CD45+ CD11b+ F4/80+ CD86+ cells); experiment: Mouse model of thioglycollate-elicited peritonitis, flow cytometry of peritoneal cells; type: in vivo, mice; conditions: 30 mg/kg intraperitoneally, twice; 24 hours after thioglycollate
Method: FIGS. 5A-5D show RSK activity plays a key role for pro-inflammatory activation of macrophages in peritonitis model. (FIG. 5A) Model overview—mice were injected intraperitoneally with vehicle or 30 mg/kg BI-D1870. Twenty-four hours after the injection, 4% thioglycollate as well as vehicle or 30 mg/kg BI-D1870 were injected intraperitoneally in the mice. Forty-eight hours after the first injection, peritoneal cells were harvested. (FIG. 5B) Representative results of flow cytometry. Peritoneal cells were incubated with APC-Cy7-anti-CD45, FITC-anti-F4/80, APC-anti-CD11b, and PE-Cy7-anti-CD86 followed by flow-cytometry analysis. (FIG. 5C) Ratio of CD86-positive cells in peritoneal macrophages. Data are means±SE. N=10 mice. *P<0.05 indicates significance compared to control (vehicle) by unpaired Student's test. (FIG. 5D) Cell numbers of peritoneal CD86-positive macrophages. Data are means±SE. N=10 mice. *P<0.05 indicates significance by unpaired Student's test.
Mouse peritonitis model. C57BL/6J wild type mice (12 weeks old, male) were purchased from Jackson Laboratory. We injected intraperitoneally with vehicle (30% PEG400, 0.5% Tween80, 5% Propylene glycol) or 30 mg/kg BI-D1870 (Selleck Chemicals). […]
Flow cytometry. […] After washing cells with EasySep Buffer, stained cells were analyzed by BD FACSAria II (BD Bioscience) and FlowJo software (FlowJo LLC).

[2] = tested on: IFN-γ-induced chemokine mRNA; experiment: Real-time PCR of IFN-γ-induced genes in PBMC-derived macrophages; type: cell-based, human; conditions: 1 or 10 μM for two hours, then IFN-γ eight hours, vs DMSO
Method: FIGS. 4A-D show silencing RSK1 suppresses IFN-γ-induced chemokines in human primary macrophages. (FIG. 4A and FIG. 4B) Human PBMC-derived macrophages were treated with control siRNA or RSK1 siRNA followed by treatment with IFN-γ for the indicated time. Total RNA samples were subjected to real-time PCR analysis using the indicated probes and primers. GAPDH was used for normalization. (FIG. 4A) Representative results from one donor. Data are means±SD. (FIG. 4B) Quantification of the area-under-the-curve (AUC) plots of the real-time PCR data in panel (FIG. 4A). Data are means±SE. N=3 donors. *P<0.05 and **P<0.01 indicate significance for AUC of mRNA levels by paired Student's test. (FIG. 4C) Macrophages were treated with DMSO or BI-D1870 (1 or 10 μM) for two hours followed by stimulation with IFN-γ for eight hours. Total RNA samples were subjected to real-time PCR analysis using the indicated probes and primers. GAPDH was used for normalization. Data are means±SE. N=3-4 donors. *P<0.05 and **P<0.01 indicate significance for mRNA levels compared to control (treatment with DMSO and IFN-γ) by Dunnett's comparison test. […] Secreted chemokine levels were measured using ELISA. […]
Real-time PCR. […] The mRNA levels were determined by TaqMan-based real-time PCR reactions (Thermo Fisher Scientific). […] Data were normalized by human GAPDH and then calculated using the delta-delta Ct method.

CC(C)CCN1c2nc(Nc3cc(F)c(O)c(F)c3)ncc2N(C)C(=O)C1C (stereo not drawn) [BI-D1870]
accumulation of activated macrophages in peritoneal cavity [1]: suppressed | ratio of activated macrophages to total macrophages [1]: suppressed | mRNA levels of pro-inflammatory chemokines such as CCL2/MCP-1 [2]: attenuated
